# Literature values, collected in US11147778B2, “Siderophore-polymer conjugates for increasing bacterial sensitivity to antibiotics” (Wisconsin Alumni Research Foundation, priority 2016, dated 2021).
# Tested on: Pseudomonas aeruginosa 2638
# Design: key: S = susceptible; I = intermediate; R = resistant
# Settings: strain 2638; cited from earlier work
row,SMILES,Phenotype (drug resistance profile)
1,"CC(C)(O/N=C(\C(=O)N[C@@H]1C(=O)N2C(C(=O)[O-])=C(C[n+]3ccccc3)CS[C@H]12)c1csc(N)n1)C(=O)O [CAZ, ceftazidime]","CAZ-R, TZP-R, CIP-R, TOB-R"
2,"O=C(O)c1cn(C2CC2)c2cc(N3CCNCC3)c(F)cc2c1=O [CIP, ciprofloxacin]","CAZ-R, TZP-R, CIP-R, TOB-R"
3,"C[C@@H](O)[C@H]1C(=O)N2C(C(=O)O)=C(S[C@@H]3CN[C@H](CNS(N)(=O)=O)C3)[C@H](C)[C@H]12 [DOR, doripenem]","DOR-R, IPM-R, MEM-R, FEP-R,"
4,"CO/N=C(\C(=O)N[C@@H]1C(=O)N2C(C(=O)[O-])=C(C[N+]3(C)CCCC3)CS[C@H]12)c1csc(N)n1 [FEP, cefepime]","DOR-R, IPM-R, MEM-R, FEP-R,"
5,"C[C@@H](O)[C@H]1C(=O)N2C(C(=O)O)=C(S[C@@H]3CN[C@H](C(=O)N(C)C)C3)[C@H](C)[C@H]12 [MEM, meropenem]","DOR-R, IPM-R, MEM-R, FEP-R,"
6,"NC[C@H]1O[C@H](O[C@H]2[C@H](O)[C@@H](O[C@H]3O[C@H](CO)[C@@H](O)[C@H](N)[C@H]3O)[C@H](N)C[C@@H]2N)[C@H](N)C[C@@H]1O [TOB, tobramycin]","CAZ-R, TZP-R, CIP-R, TOB-R"

# Tested on: Pseudomonas aeruginosa 3068
# Design: key: S = susceptible; I = intermediate; R = resistant
# Settings: strain 3068; cited from earlier work
row,SMILES,Phenotype (drug resistance profile)
1,"CC(C)(O/N=C(\C(=O)N[C@@H]1C(=O)N2C(C(=O)[O-])=C(C[n+]3ccccc3)CS[C@H]12)c1csc(N)n1)C(=O)O [CAZ, ceftazidime]",S
2,"O=C(O)c1cn(C2CC2)c2cc(N3CCNCC3)c(F)cc2c1=O [CIP, ciprofloxacin]",R
3,"C[C@@H](O)[C@H]1C(=O)N2C(C(=O)O)=C(S[C@@H]3CN[C@H](CNS(N)(=O)=O)C3)[C@H](C)[C@H]12 [DOR, doripenem]","DOR-R, IPM-R, MEM-R, FEP-R,"
4,"CO/N=C(\C(=O)N[C@@H]1C(=O)N2C(C(=O)[O-])=C(C[N+]3(C)CCCC3)CS[C@H]12)c1csc(N)n1 [FEP, cefepime]","DOR-R, IPM-R, MEM-R, FEP-R,"
5,"C[C@@H](O)[C@H]1C(=O)N2C(C(=O)O)=C(S[C@@H]3CN[C@H](C(=O)N(C)C)C3)[C@H](C)[C@H]12 [MEM, meropenem]","DOR-R, IPM-R, MEM-R, FEP-R,"

# Tested on: Pseudomonas aeruginosa 3070
# Design: key: S = susceptible; I = intermediate; R = resistant
# Settings: strain 3070; cited from earlier work
row,SMILES,Phenotype (drug resistance profile)
1,"CC(C)(O/N=C(\C(=O)N[C@@H]1C(=O)N2C(C(=O)[O-])=C(C[n+]3ccccc3)CS[C@H]12)c1csc(N)n1)C(=O)O [CAZ, ceftazidime]",R
2,"O=C(O)c1cn(C2CC2)c2cc(N3CCNCC3)c(F)cc2c1=O [CIP, ciprofloxacin]",R
3,"C[C@@H](O)[C@H]1C(=O)N2C(C(=O)O)=C(S[C@@H]3CN[C@H](CNS(N)(=O)=O)C3)[C@H](C)[C@H]12 [DOR, doripenem]",R
4,"CO/N=C(\C(=O)N[C@@H]1C(=O)N2C(C(=O)[O-])=C(C[N+]3(C)CCCC3)CS[C@H]12)c1csc(N)n1 [FEP, cefepime]",I
5,"C[C@@H](O)[C@H]1C(=O)N2C(C(=O)O)=C(S[C@@H]3CN[C@H](C(=O)N(C)C)C3)[C@H](C)[C@H]12 [MEM, meropenem]",R

# Tested on: Pseudomonas aeruginosa 9139
# Design: key: S = susceptible; I = intermediate; R = resistant
# Settings: strain 9139; cited from earlier work
row,SMILES,Phenotype (drug resistance profile)
1,"CC(C)(O/N=C(\C(=O)N[C@@H]1C(=O)N2C(C(=O)[O-])=C(C[n+]3ccccc3)CS[C@H]12)c1csc(N)n1)C(=O)O [CAZ, ceftazidime]",S
2,"O=C(O)c1cn(C2CC2)c2cc(N3CCNCC3)c(F)cc2c1=O [CIP, ciprofloxacin]",S
3,"C[C@@H](O)[C@H]1C(=O)N2C(C(=O)O)=C(S[C@@H]3CN[C@H](CNS(N)(=O)=O)C3)[C@H](C)[C@H]12 [DOR, doripenem]",S
4,"CO/N=C(\C(=O)N[C@@H]1C(=O)N2C(C(=O)[O-])=C(C[N+]3(C)CCCC3)CS[C@H]12)c1csc(N)n1 [FEP, cefepime]",R
5,"C[C@@H](O)[C@H]1C(=O)N2C(C(=O)O)=C(S[C@@H]3CN[C@H](C(=O)N(C)C)C3)[C@H](C)[C@H]12 [MEM, meropenem]",S
6,"NC[C@H]1O[C@H](O[C@H]2[C@H](O)[C@@H](O[C@H]3O[C@H](CO)[C@@H](O)[C@H](N)[C@H]3O)[C@H](N)C[C@@H]2N)[C@H](N)C[C@@H]1O [TOB, tobramycin]",S

# Tested on: Pseudomonas aeruginosa 3072
# Design: key: S = susceptible; I = intermediate; R = resistant
# Settings: strain 3072; cited from earlier work
row,SMILES,Phenotype (drug resistance profile)
1,"CC(C)(O/N=C(\C(=O)N[C@@H]1C(=O)N2C(C(=O)[O-])=C(C[n+]3ccccc3)CS[C@H]12)c1csc(N)n1)C(=O)O [CAZ, ceftazidime]",S
2,"O=C(O)c1cn(C2CC2)c2cc(N3CCNCC3)c(F)cc2c1=O [CIP, ciprofloxacin]",R
3,"C[C@@H](O)[C@H]1C(=O)N2C(C(=O)O)=C(S[C@@H]3CN[C@H](CNS(N)(=O)=O)C3)[C@H](C)[C@H]12 [DOR, doripenem]",R
4,"CO/N=C(\C(=O)N[C@@H]1C(=O)N2C(C(=O)[O-])=C(C[N+]3(C)CCCC3)CS[C@H]12)c1csc(N)n1 [FEP, cefepime]",S
5,"C[C@@H](O)[C@H]1C(=O)N2C(C(=O)O)=C(S[C@@H]3CN[C@H](C(=O)N(C)C)C3)[C@H](C)[C@H]12 [MEM, meropenem]",R
6,"NC[C@H]1O[C@H](O[C@H]2[C@H](O)[C@@H](O[C@H]3O[C@H](CO)[C@@H](O)[C@H](N)[C@H]3O)[C@H](N)C[C@@H]2N)[C@H](N)C[C@@H]1O [TOB, tobramycin]",R

# Tested on: Pseudomonas aeruginosa 3071
# Design: key: S = susceptible; I = intermediate; R = resistant
# Settings: strain 3071; cited from earlier work
row,SMILES,Phenotype (drug resistance profile)
1,"CC(C)(O/N=C(\C(=O)N[C@@H]1C(=O)N2C(C(=O)[O-])=C(C[n+]3ccccc3)CS[C@H]12)c1csc(N)n1)C(=O)O [CAZ, ceftazidime]","CAZ-R, TZP-R, CIP-R"
2,"O=C(O)c1cn(C2CC2)c2cc(N3CCNCC3)c(F)cc2c1=O [CIP, ciprofloxacin]","CAZ-R, TZP-R, CIP-R"
3,"C[C@@H](O)[C@H]1C(=O)N2C(C(=O)O)=C(S[C@@H]3CN[C@H](CNS(N)(=O)=O)C3)[C@H](C)[C@H]12 [DOR, doripenem]","DOR-R, IPM-R, MEM-R, FEP-R,"
4,"CO/N=C(\C(=O)N[C@@H]1C(=O)N2C(C(=O)[O-])=C(C[N+]3(C)CCCC3)CS[C@H]12)c1csc(N)n1 [FEP, cefepime]","DOR-R, IPM-R, MEM-R, FEP-R,"
5,"C[C@@H](O)[C@H]1C(=O)N2C(C(=O)O)=C(S[C@@H]3CN[C@H](C(=O)N(C)C)C3)[C@H](C)[C@H]12 [MEM, meropenem]","DOR-R, IPM-R, MEM-R, FEP-R,"

# Tested on: Pseudomonas aeruginosa 823
# Design: key: S = susceptible; I = intermediate; R = resistant
# Settings: strain 823; cited from earlier work
row,SMILES,Phenotype (drug resistance profile)
1,"CC(C)(O/N=C(\C(=O)N[C@@H]1C(=O)N2C(C(=O)[O-])=C(C[n+]3ccccc3)CS[C@H]12)c1csc(N)n1)C(=O)O [CAZ, ceftazidime]",R
2,"O=C(O)c1cn(C2CC2)c2cc(N3CCNCC3)c(F)cc2c1=O [CIP, ciprofloxacin]",S
3,"C[C@@H](O)[C@H]1C(=O)N2C(C(=O)O)=C(S[C@@H]3CN[C@H](CNS(N)(=O)=O)C3)[C@H](C)[C@H]12 [DOR, doripenem]",S
4,"CO/N=C(\C(=O)N[C@@H]1C(=O)N2C(C(=O)[O-])=C(C[N+]3(C)CCCC3)CS[C@H]12)c1csc(N)n1 [FEP, cefepime]",R
5,"C[C@@H](O)[C@H]1C(=O)N2C(C(=O)O)=C(S[C@@H]3CN[C@H](C(=O)N(C)C)C3)[C@H](C)[C@H]12 [MEM, meropenem]",S
6,"NC[C@H]1O[C@H](O[C@H]2[C@H](O)[C@@H](O[C@H]3O[C@H](CO)[C@@H](O)[C@H](N)[C@H]3O)[C@H](N)C[C@@H]2N)[C@H](N)C[C@@H]1O [TOB, tobramycin]",S

# Tested on: Pseudomonas aeruginosa 26975
# Design: key: S = susceptible; I = intermediate; R = resistant
# Settings: strain 26975; cited from earlier work
row,SMILES,Phenotype (drug resistance profile)
1,"CC(C)(O/N=C(\C(=O)N[C@@H]1C(=O)N2C(C(=O)[O-])=C(C[n+]3ccccc3)CS[C@H]12)c1csc(N)n1)C(=O)O [CAZ, ceftazidime]",R
2,"O=C(O)c1cn(C2CC2)c2cc(N3CCNCC3)c(F)cc2c1=O [CIP, ciprofloxacin]",S
3,"C[C@@H](O)[C@H]1C(=O)N2C(C(=O)O)=C(S[C@@H]3CN[C@H](CNS(N)(=O)=O)C3)[C@H](C)[C@H]12 [DOR, doripenem]",S
4,"CO/N=C(\C(=O)N[C@@H]1C(=O)N2C(C(=O)[O-])=C(C[N+]3(C)CCCC3)CS[C@H]12)c1csc(N)n1 [FEP, cefepime]",R
5,"C[C@@H](O)[C@H]1C(=O)N2C(C(=O)O)=C(S[C@@H]3CN[C@H](C(=O)N(C)C)C3)[C@H](C)[C@H]12 [MEM, meropenem]",S
6,"NC[C@H]1O[C@H](O[C@H]2[C@H](O)[C@@H](O[C@H]3O[C@H](CO)[C@@H](O)[C@H](N)[C@H]3O)[C@H](N)C[C@@H]2N)[C@H](N)C[C@@H]1O [TOB, tobramycin]",R

# Tested on: Pseudomonas aeruginosa 3076
# Design: key: S = susceptible; I = intermediate; R = resistant
# Settings: strain 3076; cited from earlier work
row,SMILES,Phenotype (drug resistance profile)
1,"CC(C)(O/N=C(\C(=O)N[C@@H]1C(=O)N2C(C(=O)[O-])=C(C[n+]3ccccc3)CS[C@H]12)c1csc(N)n1)C(=O)O [CAZ, ceftazidime]",R
2,"O=C(O)c1cn(C2CC2)c2cc(N3CCNCC3)c(F)cc2c1=O [CIP, ciprofloxacin]",R
3,"C[C@@H](O)[C@H]1C(=O)N2C(C(=O)O)=C(S[C@@H]3CN[C@H](CNS(N)(=O)=O)C3)[C@H](C)[C@H]12 [DOR, doripenem]",R
4,"CO/N=C(\C(=O)N[C@@H]1C(=O)N2C(C(=O)[O-])=C(C[N+]3(C)CCCC3)CS[C@H]12)c1csc(N)n1 [FEP, cefepime]",I
5,"C[C@@H](O)[C@H]1C(=O)N2C(C(=O)O)=C(S[C@@H]3CN[C@H](C(=O)N(C)C)C3)[C@H](C)[C@H]12 [MEM, meropenem]",R
6,"NC[C@H]1O[C@H](O[C@H]2[C@H](O)[C@@H](O[C@H]3O[C@H](CO)[C@@H](O)[C@H](N)[C@H]3O)[C@H](N)C[C@@H]2N)[C@H](N)C[C@@H]1O [TOB, tobramycin]",S

# Tested on: Pseudomonas aeruginosa 24530
# Design: key: S = susceptible; I = intermediate; R = resistant
# Settings: strain 24530; cited from earlier work
row,SMILES,Phenotype (drug resistance profile)
1,"CC(C)(O/N=C(\C(=O)N[C@@H]1C(=O)N2C(C(=O)[O-])=C(C[n+]3ccccc3)CS[C@H]12)c1csc(N)n1)C(=O)O [CAZ, ceftazidime]",R
2,"O=C(O)c1cn(C2CC2)c2cc(N3CCNCC3)c(F)cc2c1=O [CIP, ciprofloxacin]",S
3,"C[C@@H](O)[C@H]1C(=O)N2C(C(=O)O)=C(S[C@@H]3CN[C@H](CNS(N)(=O)=O)C3)[C@H](C)[C@H]12 [DOR, doripenem]","DOR-R, IPM-R, MEM-R, FEP-R,"
4,"CO/N=C(\C(=O)N[C@@H]1C(=O)N2C(C(=O)[O-])=C(C[N+]3(C)CCCC3)CS[C@H]12)c1csc(N)n1 [FEP, cefepime]","DOR-R, IPM-R, MEM-R, FEP-R,"
5,"C[C@@H](O)[C@H]1C(=O)N2C(C(=O)O)=C(S[C@@H]3CN[C@H](C(=O)N(C)C)C3)[C@H](C)[C@H]12 [MEM, meropenem]","DOR-R, IPM-R, MEM-R, FEP-R,"
6,"NC[C@H]1O[C@H](O[C@H]2[C@H](O)[C@@H](O[C@H]3O[C@H](CO)[C@@H](O)[C@H](N)[C@H]3O)[C@H](N)C[C@@H]2N)[C@H](N)C[C@@H]1O [TOB, tobramycin]",S
